Experimental data taken from patent US8455475B2 (Gruenenthal GmbH, priority 2009, dated 2013).

target: T1, rat B1R (bradykinin receptor 1) (Rattus norvegicus, UniProt P97583); test: FLIPR Ca2+ assay (Fluo-4) on CHO K1 cells stably transfected with the B1R gene of the rat (rB1R cells): % inhibition at 10 μM / IC50, agonist Des-Arg9-bradykinin; format: cell-based; details: CHO-K1, rat B1R
T1 construct: expressed in transfected cells; host or cells: CHO K1 cells
T1 sequence (P97583 1-337): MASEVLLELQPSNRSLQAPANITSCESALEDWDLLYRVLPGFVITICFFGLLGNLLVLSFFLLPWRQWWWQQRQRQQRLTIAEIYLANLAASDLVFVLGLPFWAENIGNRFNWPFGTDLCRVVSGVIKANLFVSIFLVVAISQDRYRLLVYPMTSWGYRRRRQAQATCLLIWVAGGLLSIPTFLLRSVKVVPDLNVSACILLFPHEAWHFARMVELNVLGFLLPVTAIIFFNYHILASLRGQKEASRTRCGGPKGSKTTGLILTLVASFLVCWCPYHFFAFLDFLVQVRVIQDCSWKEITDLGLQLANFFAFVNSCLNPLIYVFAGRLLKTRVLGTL
Outline: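 Antagonism is measured as the drop in peak Fluo-4 Ca2+ signal when the EC80 agonist follows 10–20 min compound exposure. The single-point screen uses 10 μM; IC50 uses several concentrations. Values are given as % of maximal achievable inhibition.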

Compound	inhibition at 10 µM
Cn1nnc2cc(CN3CCC4(CC3)CCN(C(=O)c3ccc5c(c3)C(NC(=O)c3c(F)cccc3Cl)CC5)C4)ccc21 (centres unmarked) [IND_CC-776, 2-Chloro-6-fluoro-N-[6-[8-[(1-methyl-1H-benzotriazol-5-yl)-methyl]-2,8-diazaspiro[4.5]decane-2-carbonyl]-2,3-dihydro-1H-inden-1-yl]-benzamide]	99%
Cc1cccc(Cl)c1C(=O)NC1CCc2ccc(C(=O)N3CCC4(CCN(Cc5c(C)noc5C)CC4)C3)cc21 (centres unmarked) [IND_CC-730, 2-Chloro-N-[6-[8-[(3,5-dimethyl-isoxazol-4-yl)-methyl]-2,8-diazaspiro-[4.5]decane-2-carbonyl]-2,3-dihydro-1H-inden-1-yl]-6-methyl-benzamide]	75%
N#Cc1cccc(CN2CCC3(CC2)CCN(C(=O)c2ccc4c(c2)C(NC(=O)c2cc(C(F)(F)F)ccc2Cl)CC4)C3)c1 (centres unmarked) [IND_CC-659, 2-Chloro-N-[6-[8-[(3-cyano-phenyl)-methyl]-2,8-diazaspiro[4.5]decane-2-carbonyl]-2,3-dihydro-1H-inden-1-yl]-5-(trifluoromethyl)-benzamide]	81%
Cc1c(CN2CCC3(CC2)CCN(C(=O)c2ccc4c(c2)C(NC(=O)c2cccc(Cl)c2Cl)CC4)C3)cnn1C (centres unmarked) [IND_CC-722, 2,3-Dichloro-N-[6-[8-[(1,5-dimethyl-1H-pyrazol-4-yl)-methyl]-2,8-diazaspiro[4.5]decane-2-carbonyl]-2,3-dihydro-1H-inden-1-yl]-benzamide]	81%
O=C(Nc1ccc(F)c(Cl)c1)N1CCC2(CC1)CCN(C(=O)c1ccc3c(c1)C(N(C(=O)c1ccccc1Cl)C1CC1)CC3)C2 (centres unmarked) [IND_CC-713, 2-[3-[(2-Chloro-benzoyl)-cyclopropyl-amino]-2,3-dihydro-1H-indene-5-carbonyl]-N-(3-chloro-4-fluoro-phenyl)-2,8-diazaspiro[4.5]decane-8-carboxylic acid amide]	77%
Cn1nnc2cc(CN3CCC4(CC3)CCN(C(=O)c3ccc5c(c3)C(NC(=O)c3cc(C(F)(F)F)ccc3Cl)CC5)C4)ccc21 (centres unmarked) [IND_CC-686, 2-Chloro-N-[6-[8-[(1-methyl-1H-benzotriazol-5-yl)-methyl]-2,8-diazaspiro[4.5]-decane-2-carbonyl]-2,3-dihydro-1H-inden-1-yl]-5-(trifluoromethyl)-benzamide]	69%
O=C(c1ccc2c(c1)C(N(C(=O)c1ccccc1Cl)C1CC1)CC2)N1CCC2(CCN(S(=O)(=O)c3ccc(Cl)s3)CC2)C1 (centres unmarked) [IND_CC-615, 2-Chloro-N-[6-[8-[(5-chloro-thiophen-2-yl)sulfonyl]-2,8-diazaspiro[4.5]-decane-2-carbonyl]-2,3-dihydro-1H-inden-1-yl]-N-cyclopropyl-benzamide]	67%
Cc1cccc(Cl)c1C(=O)NC1CCc2ccc(C(=O)N3CCC4(CCN(Cc5ccc6ncccc6c5)CC4)C3)cc21 (centres unmarked) [IND_CC-764, 2-Chloro-6-methyl-N-[6-[8-(quinolin-6-yl-methyl)-2,8-diazaspiro[4.5]decane-2-carbonyl]-2,3-dihydro-1H-inden-1-yl]-benzamide]	71%
O=C(NC1CCc2ccc(C(=O)N3CCC4(CCN(Cc5ccc6ncccc6c5)CC4)C3)cc21)c1cccc(Cl)c1Cl (centres unmarked) [IND_CC-744, 2,3-Dichloro-N-[6-[8-(quinolin-6-yl-methyl)-2,8-diazaspiro[4.5]decane-2-carbonyl]-2,3-dihydro-1H-inden-1-yl]-benzamide]	71%
Cc1cccc(Cl)c1C(=O)NC1CCc2ccc(C(=O)N3CCC4(CCN(Cc5cccc(C#N)c5)CC4)C3)cc21 (centres unmarked) [IND_CC-732, 2-Chloro-N-[6-[8-[(3-cyano-phenyl)-methyl]-2,8-diazaspiro[4.5]decane-2-carbonyl]-2,3-dihydro-1H-inden-1-yl]-6-methyl-benzamide]	100%
O=C(NC1CCc2ccc(C(=O)N3CCC4(CCN(Cc5c[nH]cn5)CC4)C3)cc21)c1cc(C(F)(F)F)ccc1Cl (centres unmarked) [IND_CC-631, 2-Chloro-N-[6-[8-(1H-imidazol-4-yl-methyl)-2,8-diazaspiro[4.5]decane-2-carbonyl]-2,3-dihydro-1H-inden-1-yl]-5-(trifluoromethyl)-benzamide]	57%

Now from value to molecule:

inhibition at 10 µM	Compound
104%	O=C(NC1CCc2ccc(C(=O)N3CCC4(CCN(Cc5ccc(F)cc5Cl)CC4)CC3)cc21)c1ccccc1Cl (centres unmarked) [IND_CC-529, 2-Chloro-N-[6-[9-[(2-chloro-4-fluoro-phenyl)-methyl]-3,9-diazaspiro[5.5]undecane-3-carbonyl]-2,3-dihydro-1H-inden-1-yl]-benzamide]
60%	CN(C(=O)c1ccccc1Cl)C1CCc2ccc(C(=O)N3CCC4(CCN(Cc5ccc(F)c(F)c5)CC4)C3)cc21 (centres unmarked) [IND_CC-549, 2-Chloro-N-[6-[8-[(3,4-difluoro-phenyl)-methyl]-2,8-diazaspiro[4.5]decane-2-carbonyl]-2,3-dihydro-1H-inden-1-yl]-N-methyl-benzamide]
95%	Cc1nc[nH]c1CN1CCC2(CC1)CCN(C(=O)c1ccc3c(c1)C(NC(=O)c1cc(C(F)(F)F)ccc1Cl)CC3)CC2 (centres unmarked) [IND_CC-661, 2-Chloro-N-[6-[9-[(5-methyl-3H-imidazol-4-yl)-methyl]-3,9-diazaspiro[5.5]-undecane-3-carbonyl]-2,3-dihydro-1H-inden-1-yl]-5-(trifluoromethyl)benzamide]
102%	O=C(NC1CCc2ccc(C(=O)N3CCC4(CCN(Cc5ccc(F)c(F)c5)CC4)CC3)cc21)c1ccccc1Cl (centres unmarked) [IND_CC-514, 2-Chloro-N-[6-[9-[(3,4-difluoro-phenyl)-methyl]-3,9-diazaspiro[5.5]undecane-3-carbonyl]-2,3-dihydro-1H-inden-1-yl]-benzamide]
100%	CCC(CC)C(=O)NC1CCc2ccc(C(=O)N3CCC4(CCN(c5ccncc5)CC4)C3)cc21 (centres unmarked) [IND_CC-420, 2-Ethyl-N-[6-(8-pyridin-4-yl-2,8-diazaspiro[4.5]decane-2-carbonyl)-2,3-dihydro-1H-inden-1-yl]-butyramide]
99%	CC(C)C(=O)N(C)C1CCc2ccc(C(=O)N3CCC4(CC3)CCN(c3ccncc3)CC4)cc21 (centres unmarked) [IND_CC-418, N,2-Dimethyl-N-[6-(9-pyridin-4-yl-3,9-diazaspiro[5.5]undecane-3-carbonyl)-2,3-dihydro-1H-inden-1-yl]-propionamide]
62%	Cc1noc(C)c1CN1CCC2(CC1)CCN(C(=O)c1ccc3c(c1)C(NC(=O)c1ccccc1Cl)CC3)CC2 (centres unmarked) [IND_CC-532, 2-Chloro-N-[6-[9-[(3,5-dimethyl-isoxazol-4-yl)-methyl]-3,9-diazaspiro[5.5]undecane-3-carbonyl]-2,3-dihydro-1H-inden-1-yl]-benzamide]
100%	O=C(NC1CCc2ccc(C(=O)N3CCC4(CCN(Cc5c[nH]cn5)CC4)CC3)cc21)c1ccccc1Cl (centres unmarked) [IND_CC-508, 2-Chloro-N-[6-[9-(1H-imidazol-4-yl-methyl)-3,9-diazaspiro[5.5]undecane-3-carbonyl]-2,3-dihydro-1H-inden-1-yl]-benzamide]
86%	O=C(c1ccc2c(c1)C(N(C(=O)c1ccccc1Cl)C1CC1)CC2)N1CCC2(CCN(Cc3cccnc3)CC2)C1 (centres unmarked) [IND_CC-518, 2-Chloro-N-cyclopropyl-N-[6-[8-(pyridin-3-yl-methyl)-2,8-diazaspiro[4.5]decane-2-carbonyl]-2,3-dihydro-1H-inden-1-yl]-benzamide]
55%	CCn1cc(CN2CCC3(CC2)CCN(C(=O)c2ccc4c(c2)C(NC(=O)c2c(C)cccc2Cl)CC4)C3)c(C)n1 (centres unmarked) [IND_CC-762, 2-Chloro-N-[6-[8-[(1-ethyl-3-methyl-1H-pyrazol-4-yl)-methyl]-2,8-diazaspiro-[4.5]decane-2-carbonyl]-2,3-dihydro-1H-inden-1-yl]-6-methyl-benzamide]
99%	CN(C(=O)CCC1CCCC1)C1CCc2ccc(C(=O)N3CCC4(CC3)CCN(c3ccncc3)CC4)cc21 (centres unmarked) [IND_CC-412, 3-Cyclopentyl-N-methyl-N-[6-(9-pyridin-4-yl-3,9-diazaspiro[5.5]undecane-3-carbonyl)-2,3-dihydro-1H-inden-1-yl]-propionamide]
101%	CC1(C)CC(NS(=O)(=O)c2cccc(C(F)(F)F)c2)c2cc(C(=O)N3CCC4(CC3)CCN(c3ccncc3)CC4)ccc21 (centres unmarked) [IND_CC-340, N-[3,3-Dimethyl-6-(3-pyridin-4-yl-3,9-diazaspiro[5.5]undecane-9-carbonyl)-1,2-dihydro-inden-1-yl]-3-(trifluoromethyl)-benzenesulfonic acid amide]
101%	CCC(C)C(=O)N(C)C1CCc2ccc(C(=O)N3CCC4(CC3)CCN(c3ccncc3)CC4)cc21 (centres unmarked) [IND_CC-416, N,2-Dimethyl-N-[6-(9-pyridin-4-yl-3,9-diazaspiro[5.5]undecane-3-carbonyl)-2,3-dihydro-1H-inden-1-yl]-butyramide]
90%	COc1cccc(F)c1CN1CCC2(CC1)CCN(C(=O)c1ccc3c(c1)C(NC(=O)c1ccccc1Cl)CC3)CC2 (centres unmarked) [IND_CC-517, 2-Chloro-N-[6-[9-[(2-fluoro-6-methoxy-phenyl)-methyl]-3,9-diazaspiro[5.5]undecane-3-carbonyl]-2,3-dihydro-1H-inden-1-yl]-benzamide]
103%	Cc1cccc(C(=O)NC2CCc3ccc(C(=O)N4CCC5(CCN(c6ccncc6)CC5)C4)cc32)c1C (centres unmarked) [IND_CC-389, 2,3-Dimethyl-N-[6-(8-pyridin-4-yl-2,8-diazaspiro[4.5]decane-2-carbonyl)-2,3-dihydro-1H-inden-1-yl]-benzamide]
